Measurements as given in patent publication US10766864B2, “Morphinan derivatives for the treatment of neuropathic pain” (Nektar Therapeutics, priority 2015, dated 2020).
Like-named read-outs stand apart in the source and are kept apart here.

Key:
mu opioid receptor (MOR) = mu opioid receptor (MOR) (Homo sapiens (Human), UniProt P35372); experiment: Competitive radioligand binding at MOR ([3H] Naloxone)
Procedure: (§1) Receptor Binding at MOR and NMDA.
(§2) Affinities of various compounds were measured in vitro using competitive radioligand binding assays. Serial dilutions of test compounds were incubated with membranes prepared from CHO-K1 cells expressing the mu opioid receptor (MOR; for opioid receptor binding) or rat forebrain membranes (for NMDA receptor binding). 2 nM [^3H] Naloxone (MOR) or 0.2 nM [^3H] MK801 (NMDA) were used as the specific, competitive radioligands. 10 uM Naloxone (MOR), or 10 uM MK801 (NMDA) was used to determine non-specific binding. Bound radioactivity was measured using a scintillation counter & IC50 values for test compounds were determined by non-linear regression analysis using a one-site competition model (Graph Pad Prizm). Due to each test compound being solubilized in a buffered system for the assay, the results presented herein reflect the free base activity.

NMDA receptor = experiment: Competitive radioligand binding at NMDA receptor ([3H] MK801), rat forebrain membranes; conditions: 0.2 nM [3H] MK801, reflects free base activity
Procedure: as §1, §2

[1] = membranes from CHO-K1 cells expressing MOR, 2 nM [3H] Naloxone, reflects free base activity, read-out: MOR IC50

SMILES	IC50 (mu opioid receptor (MOR); [1])	IC50 (NMDA receptor)	IC50 (mu opioid receptor (MOR))
COCCOCCOCC(=O)Nc1nc2cc3c(cc2s1)C[C@@H]1[C@@H]2CCCC[C@]32CCN1C [Compound 68, 2-[2-(2-methoxyethoxy)ethoxy]-N— [(4aR,5R,11bR)-14-methyl-2,3,4,4a,5,6-hexahydro-1H-5,11b-(epiminoethano)phenanthro[3,2-d][1,3]thiazol-9-yl]acetamide]	> 1000 nM	1000 to 10000 nM	–
COCCOCCOCCOCCOCCOc1ccc2c(c1)[C@@]13CCCC[C@H]1[C@@H](C2)N(C)CC3 [Compound 14, 17-methyl-3-(2,5,8,11,14-pentaoxahexadecan-16-yloxy)morphinan]	> 1000 nM	> 10000 nM	–
COc1cccc(Nc2ccc3c(c2)[C@@]24CCCC[C@H]2[C@@H](C3)N(C)CC4)c1 [Compound 29, N-(3-methoxyphenyl)-17-methylmorphinan-3-amine]	–	1000 to 10000 nM	0.1 to 10 nM
CN1CC[C@]23CCCC[C@H]2[C@H]1Cc1cc2nc(N)[nH]c2cc13 [Compound 82, (4aR,5R,11bR)-14-methyl-1,2,3,4,4a,5,6,10-octahydro-5,11b-(epiminoethano)phenanthro[2,3-d]imidazol-9-amine]	100 to 1000 nM	> 10000 nM	–
COCCOCCOCCNc1nc2ccc3c(c2s1)[C@@]12CCCC[C@H]1[C@@H](C3)N(C)CC2 [Compound 78, (7R,7aR,11aR)—N-(2-(2-(2-methoxyethoxy)ethoxy)ethyl)-14-methyl-7,7a,8,9,10,11-hexahydro-6H-7,11a-(epiminoethano)phenanthro[3,4-d]thiazol-2-amine]	> 1000 nM	> 10000 nM	–
CN1CC[C@]23CCCC[C@H]2[C@H]1Cc1ccc(NC(=O)OC(C)(C)C)cc13 [Compound 40, tert-butyl (17-methylmorphinan-3-yl)carbamate]	–	1000 to 10000 nM	100 to 1000 nM
COCCOCCOCCNC(=O)c1ccc2c(c1)[C@@]13CCCC[C@H]1[C@@H](C2)N(C)CC3 [Compound 41, N-{2-[2-(2-methoxyethoxy)ethoxy]ethyl}-17-methylmorphinan-3-carboxamide]	> 1000 nM	> 10000 nM	–
Oc1ccc2c(c1)[C@@]13CCCC[C@H]1[C@@H](C2)N(CC1CCO1)CC3 (stereo partly drawn) [Compound 91, 17-(oxetan-2-ylmethyl)morphinan-3-ol]	–	1000 to 10000 nM	0.1 to 10 nM
CN1CC[C@]23Cc4nc(N)sc4C[C@H]2[C@H]1Cc1ccc(O)cc13 [Compound 90, (6R,6aR,11aS)-9-amino-14-methyl-6,6a,7,11-tetrahydro-5H-6,11a-(epiminoethano)phenanthro[3,2-d]thiazol-2-ol]	–	> 10000 nM	10 to 100 nM
CN1CC[C@]23CCCC[C@H]2[C@H]1Cc1cc2ccc(=O)[nH]c2cc13 [Compound 102, (4aR,5R,12bR)-15-methyl-1,2,3,4,4a,5,6,11-octahydro-10H-5,12b-(epiminoethano)naphtho[2,1-g]quinolin-10-one]	> 1000 nM	> 10000 nM	–
CN1CC[C@]23CCCC[C@H]2[C@H]1Cc1ccc(NS(C)(=O)=O)cc13 [Compound 37, N-(17-methylmorphinan-3-yl)methanesulfonamide]	–	1000 to 10000 nM	100 to 1000 nM
COCCOCCOCCO[C@H]1CC[C@H]2[C@H]3Cc4ccc(O)cc4[C@@]2(CCN3C)C1 [Compound 9, (6α)-6-{2-[2-(2-methoxyethoxy)ethoxy]ethoxy}-17-methylmorphinan-3-ol]	–	> 10000 nM	10 to 100 nM
CN1CC[C@]23CCCC[C@H]2[C@H]1Cc1ccc(-n2ccnc2)cc13 [Compound 62, 3-(1H-imidazol-1-yl)-17-methylmorphinan]	–	100 to 1000 nM	10 to 100 nM
CN1CC[C@]23CCCC[C@H]2[C@H]1Cc1cc2nnc(N)nc2cc13 [Compound 95, (4aR,5R,12bR)-15-methyl-2,3,4,4a,5,6-hexahydro-1H-5,12b-(epiminoethano)phenanthro[3,2-e][1,2,4]triazin-10-amine]	> 1000 nM	1000 to 10000 nM	–
COCCOCCN1CC[C@]23CCCC[C@H]2[C@H]1Cc1ccc(Nc2ccnnc2)cc13 [Compound 99, (4bR,8aR,9R)-11-(2-(2-methoxyethoxy)ethyl)-N-(pyridazin-4-yl)-6,7,8,8a,9,10-hexahydro-5H-9,4b-(epiminoethano)phenanthren-3-amine]	> 1000 nM	1000 to 10000 nM	–
COc1cccc(C(=O)Nc2ccc3c(c2)[C@@]24CCCC[C@H]2[C@@H](C3)N(C)CC4)c1 [Compound 25, 3-methoxy-N-((4bR,8aR,9R)-11-methyl-6,7,8,8a,9,10-hexahydro-5H-9,4b-(epiminoethano)phenanthren-3-yl)benzamide]	> 1000 nM	> 10000 nM	–
CN1CC[C@]23CCCC[C@H]2[C@H]1Cc1cc2nc[nH]c2cc13 [Compound 81, (4aR,5R,11bR)-14-methyl-1,2,3,4,4a,5,6,10-octahydro-5,11b-(epiminoethano)phenanthro[2,3-d]imidazole]	–	> 10000 nM	10 to 100 nM

SMILES	IC50 (mu opioid receptor (MOR); [1])	IC50 (NMDA receptor)	IC50 (mu opioid receptor (MOR))
COCCOCCOCCOCCOCCNc1nc2ccc3c(c2s1)[C@@]12CCCC[C@H]1[C@@H](C3)N(C)CC2 [Compound 77, (7R,7aR,11aR)—N-(2,5,8,11,14-pentaoxahexadecan-16-yl)-14-methyl-7,7a,8,9,10,11-hexahydro-6H-7,11a-(epiminoethano)phenanthro[3,4-d]thiazol-2-amine]	> 1000 nM	> 10000 nM	–
COCCNC(=O)Nc1ccc2c(c1)[C@@]13CCCC[C@H]1[C@@H](C2)N(C)CC3 [Compound 23, 1-(2-methoxyethyl)-3-(17-methylmorphinan-3-yl)urea]	–	> 10000 nM	100 to 1000 nM
COCCN1CC[C@]23CCCC[C@H]2[C@H]1Cc1ccc(Nc2cccnc2)cc13 [Compound 86, 17-(2-methoxyethyl)-N-(pyridin-3-yl)morphinan-3-amine]	–	1000 to 10000 nM	0.1 to 10 nM
COc1ccccc1C(=O)Nc1ccc2c(c1)[C@@]13CCCC[C@H]1[C@@H](C2)N(C)CC3 [Compound 26, 2-methoxy-N-((4bR,8aR,9R)-11-methyl-6,7,8,8a,9,10-hexahydro-5H-9,4b-(epiminoethano)phenanthren-3-yl)benzamide]	> 1000 nM	> 10000 nM	–
COCCOCCN1CC[C@]23CCCC[C@H]2[C@H]1Cc1ccc(Nc2ccncc2)cc13 [Compound 98, 17-[2-(2-methoxyethoxy)ethyl]-N-(pyridin-4-yl)morphinan-3-amine]	–	100 to 1000 nM	100 to 1000 nM
COCCOCCNC(=O)c1ccc2c(c1)[C@@]13CCCC[C@H]1[C@@H](C2)N(C)CC3 [Compound 39, N-[2-(2-methoxyethoxy)ethyl]-17-methylmorphinan-3-carboxamide]	–	> 10000 nM	100 to 1000 nM
CN1CC[C@]23CCCC[C@H]2[C@H]1Cc1ccc(N(c2ccccn2)c2ccccn2)cc13 [Compound 57, 17-methyl-N,N-di(pyridin-2-yl)morphinan-3-amine]	> 1000 nM	1000 to 10000 nM	–
COCCOCCOCCN1CC[C@]23CC(=O)CC[C@H]2[C@H]1Cc1ccc(O)cc13 [Compound 6, 3-hydroxy-17-{2-[2-(2-methoxyethoxy)ethoxy]ethyl}morphinan-6-one]	–	> 10000 nM	100 to 1000 nM
COc1ccc(Nc2ccc3c(c2)[C@@]24CCCC[C@H]2[C@@H](C3)N(C)CC4)cc1 [Compound 28, N-(4-methoxyphenyl)-17-methylmorphinan-3-amine]	–	1000 to 10000 nM	0.1 to 10 nM
COCCOCCOCCOCCOCCO[C@H]1CC[C@H]2[C@H]3Cc4ccc(O)cc4[C@@]2(CCN3C)C1 [Compound 10, (6α)-17-methyl-6-(2,5,8,11,14-pentaoxahexadecan-16-yloxy)morphinan-3-ol]	100 to 1000 nM	> 10000 nM	–
COCCOc1cc2c(cc1O)[C@@]13CCCCC1[C@@H](C2)N(C)CC3 (stereo partly drawn) [Compound 73, 2-(2-methoxyethoxy)-17-methylmorphinan-3-ol]	–	1000 to 10000 nM	100 to 1000 nM
CN1CC[C@]23CCCC[C@H]2[C@H]1Cc1ccc(Nc2ccccn2)cc13 [Compound 63, 17-methyl-N-(pyridin-2-yl)morphinan-3-amine]	–	100 to 1000 nM	100 to 1000 nM
CN1CC[C@]23CCCC[C@H]2[C@H]1Cc1ccc(Nc2cccnn2)cc13 [Compound 61, 17-methyl-N-(pyridazin-3-yl)morphinan-3-amine]	–	1000 to 10000 nM	100 to 1000 nM
CN1CC[C@]23CCCC[C@H]2[C@H]1Cc1cc2cccnc2cc13 [Compound 89, (4aR,5R,12bR)-15-methyl-2,3,4,4a,5,6-hexahydro-1H-5,12b-(epiminoethano)naphtho[2,1-g]quinoline]	100 to 1000 nM	1000 to 10000 nM	–
CN1CC[C@]23CCCC[C@H]2[C@H]1Cc1ccc(Nc2ccnnc2)cc13 [Compound 56, 17-methyl-N-(pyridazin-4-yl)morphinan-3-amine]	–	0.1 to 100 nM	100 to 1000 nM
COCCOc1c(OC)ccc2c1[C@@]13CCCC[C@H]1[C@@H](C2)N(C)CC3 [Compound 21, 3-methoxy-4-(2-methoxyethoxy)-17-methylmorphinan]	–	–	100 to 1000 nM
COCCOCCOCCOCCOCCOCCNc1nc2cc3c(cc2s1)C[C@@H]1[C@@H]2CCCC[C@]32CCN1C [Compound 70, (4aR,5R,11bR)-14-methyl-N-(2,5,8,11,14,17-hexaoxanonadecan-19-yl)-2,3,4,4a,5,6-hexahydro-1H-5,11b-(epiminoethano)phenanthro[3,2-d][1,3]thiazol-9-amine]	–	> 10000 nM	–
